# PubChem BioAssay (NCI)
#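 Following 48 hours of exposure in 96-well plates, responses at five concentrations were used to interpolate endpoints linearly. Abbreviation: GI50, concentration required for 50% inhibition of growth. TGI denotes the concentration required for complete inhibition of growth.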
# Experiments:
# Experiment in all cases: NCI anticancer screen, dose series, 48 h
# [1] = system: TK-10 renal
# [2] = system: T-47D breast
# [3] = system: HT29 colon
# [4] = system: NCI/ADR-RES ovarian
# [5] = system: HCT-116 colon
# [6] = system: NCI-H460 lung
# [7] = system: MCF7 breast
# [8] = system: SNB-19 CNS
# [9] = system: A549 NSCLC
# [10] = system: HOP-92 NSCLC
SMILES,TGI [1] [µM],TGI [2] [µM],TGI [3] [µM],TGI [4] [µM],TGI [5] [µM],TGI [6] [µM],TGI [7] [µM],TGI [8] [µM],TGI [9] [µM],TGI [10] [µM],GI50 [1] [µM],GI50 [2] [µM],GI50 [3] [µM],GI50 [4] [µM],GI50 [5] [µM],GI50 [6] [µM],GI50 [7] [µM],GI50 [8] [µM],GI50 [9] [µM],GI50 [10] [µM]
CC(C)c1ccccc1S(=O)c1ccccc1C(C)(C)O (stereo not given),> 100,> 100,> 100,> 100,> 100,> 100,> 100,> 100,> 100,> 100,,,,,,,,,,
Cc1cc(NC(=O)c2ccc(C)c(Nc3nccc(-c4cccnc4)n3)c2)cc(-n2cnc(C)c2)c1,2.2,3.77,5.33,23,3.28,4.16,9.19,18.1,8.7,2.78,0.0882,1.34,1.73,7.18,0.932,0.0794,1.86,5.28,0.492,0.716
COc1ccc(-c2cc(-c3cccn3C)c(C#N)c(N)n2)cc1OC,> 100,> 100,> 100,> 100,> 100,> 100,> 100,> 100,> 100,> 100,> 100,> 100,> 100,> 100,91.1,> 100,94.3,> 100,> 100,5.16
COc1cc2c(cc1OC)C13CCN4CC5=CCOC6CC(=O)N2C1C6C5CC43O (stereo not given),> 100,> 100,> 100,> 100,> 100,> 100,> 100,> 100,> 100,> 100,,,,,,,,,,
Cc1sc2nc(NCCc3c[nH]c4ccc(Cl)cc34)[nH]c(=O)c2c1C,11.5,12.7,10.8,15.6,7.07,7.95,7,13.2,5.09,5.64,3.5,2.98,3.06,3.07,1.84,2.54,2.47,3.54,2.13,2.06
COc1ccc(-n2cc(-c3ccc(Cl)c(Cl)c3)nc2SCc2cccc(C#N)c2)cc1,> 100,74,> 100,> 100,> 100,> 100,> 100,> 100,> 100,40.3,44.6,5.33,4.7,23,4.55,51.5,34.5,29.2,93.8,10.1
O=C(N/N=C\c1cc(Br)ccc1O)c1ccncc1,,62.5,> 100,34.5,> 100,> 100,7.25,> 100,> 100,45.4,,2.19,5.7,1.42,1.8,1.25,1.55,5.65,4.27,2.22
Nc1nc(Br)nc2c1ncn2C1CC(O)C(CO)O1 (stereo not given),> 100,> 100,> 100,> 100,> 100,> 100,> 100,> 56.9,> 100,> 100,> 100,> 60.7,47.7,0.384,2.76,61,1.26,,5.34,2.79
Fc1ccc(Nc2cc(-n3nnc4ccccc43)nc3ccccc23)cc1,> 77.8,> 100,> 100,> 100,> 100,> 100,> 84.4,> 100,> 100,34,23.5,,43.9,56.3,36.4,26.2,29.8,,64.4,14.4
O=C(O)c1c(-c2nccc3ccccc23)[nH]c(-c2ccccc2)c1S(=O)(=O)O,> 100,> 100,> 100,> 100,> 100,> 100,> 100,> 100,> 100,> 100,,,,,,,,,,
O=C(O)c1cc(O)c2c(c1)C(C1c3cc(C(=O)O)cc(O)c3C(=O)c3c(OC4OC(CO)C(O)C(O)C4O)cccc31)c1cccc(OC3OC(CO)C(O)C(O)C3O)c1C2=O (stereo not given),> 100,> 100,> 100,> 100,> 100,> 100,> 100,> 100,> 100,> 100,> 100,> 100,> 100,> 100,> 100,> 100,> 100,> 100,> 100,> 100
CN(C)c1ccc2nc3ccc(=O)cc-3sc2c1,> 77.7,> 100,37.1,> 100,8.47,15.7,5.75,> 100,3.02,29.5,13.8,1,4.26,0.665,1.16,1.55,0.445,2.63,0.312,1.46
COc1ccc(/C=c2/sc3n(c2=O)C(c2ccc(OC)c(OC)c2)C2=C(N=3)c3cc(F)ccc3OC2)cc1 (stereo not given),> 87.6,39.6,> 100,87.4,> 100,> 100,> 100,> 100,> 82,> 65,29,4.42,16.2,18.7,17.4,19.3,23.6,> 53.2,23.6,14.3
O=C(O)c1cccc(OCCO)c1,> 100,> 100,> 100,> 100,> 100,> 100,> 100,> 100,> 100,> 100,,,,,,,,,,
Cc1c[n+](Cc2ccc3ccccc3c2)cn1Cc1ccc2ccccc2c1,3.73,2.75,2.53,> 100,2.7,3.65,3.5,3.14,18.7,2.02,1.82,0.371,1.07,> 100,1.39,1.72,1.67,1.54,5.05,0.448
O=c1[nH]c2cc(Cl)ccc2n1C1CCN(CCCC(c2ccc(F)cc2)c2ccc(F)cc2)CC1,3.55,3.79,2.16,3.61,2.87,3.14,2.84,3.79,3.39,2.41,1.94,1.83,0.766,1.74,1.46,1.74,1.35,1.83,1.65,1.01
O=C1/C(=C\c2cccn2Cc2ccccc2)c2ccccc2N1c1c(Cl)cccc1Cl,> 100,1.93,> 100,> 100,> 100,> 100,> 100,> 100,> 100,28.8,0.978,0.266,10.7,> 100,7.36,4.43,0.0898,> 100,8.32,1.52
CCOC(=O)N1CCN(C(=O)c2ccc(C(F)(F)F)nc2Nc2cc(Cl)ccc2C)CC1,88.9,> 100,34.8,> 100,30.1,33.6,43,> 100,> 100,> 100,17.4,> 100,13.2,15.4,12.3,16.2,14.7,> 100,14.8,10.2
CN(C)Cc1c[nH]c2c1C(=O)c1c(c(O)c3ccccc3c1O)C2=O,19.7,> 100,> 100,22.8,34.8,16,15.5,43.4,20.6,31.7,5.08,11.4,16.7,4.29,8.17,3.54,3.22,8.94,7.59,13.6
N#CC(C(=O)/C(=N/Nc1nc(=S)[nH]n1N)C(C#N)c1ccccc1)c1ccccc1 (stereo not given),> 100,> 100,> 100,> 100,> 100,> 100,> 100,> 100,> 100,> 100,,,,,,,,,,
